From patent US10857197B2, “Treatment of HMGB1-mediated inflammation” (The Feinstein Institue for Medical Research, priority 2014, dated 2020)

Legend:
HMGB1 = target: T1, HMGB1 (Rattus norvegicus, UniProt P63159); assay: SPR binding of peptide to HMGB1 coated on the chip; details: absence of MD2
T1 sequence (P63159 1-215): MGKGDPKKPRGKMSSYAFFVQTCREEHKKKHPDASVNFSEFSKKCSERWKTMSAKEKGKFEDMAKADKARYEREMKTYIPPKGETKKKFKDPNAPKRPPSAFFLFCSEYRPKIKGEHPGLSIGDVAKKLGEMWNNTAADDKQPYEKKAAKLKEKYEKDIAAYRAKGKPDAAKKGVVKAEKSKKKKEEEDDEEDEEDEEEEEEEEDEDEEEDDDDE

[1] = system: thioglycollate-elicited peritoneal mouse macrophages; assay: HMGB1-induced cytokine release, mouse peritoneal macrophages (cytokine Ab array); type: cell-based; details: HMGB1 1 μg/ml, peptide 50 μg/ml, 16 h
Experimental: (§1) Cell isolation and culture. […] […]. TNF released was measured by ELISA.
(§2) Cytokine and NF-κB measurements. […] Twenty two cytokines or chemokines were determined simultaneously.

[2] = Cecal ligation and puncture (CLP) sepsis model; type: in vivo; details: 50 or 500 μg/mouse i.p. once a day for 4 days from 24 h after CLP
Text: Survival was monitored for 2 weeks.

[3] = system: Poly I:C, S100A12, LPS, PGN and CpG DNA-mediated TNF release, primary human macrophages; details: 16 h
[4] = system: HMGB1-induced TNF release, primary human macrophages; assay: HMGB1-induced TNF release in primary human macrophages (ELISA); type: cell-based; details: HMGB1 1 μg/ml, 16 h
[5] = system: LPS-stimulated primary human macrophages; assay: LPS-stimulated cytokine/chemokine release, primary human macrophages (cytokine Ab array); type: cell-based; details: LPS 2 ng/ml, peptide 50 μg/ml, 16 h
Experimental: as §2

[6] = Acetaminophen (APAP) hepatic toxicity model; type: in vivo, mouse
Experimental: For the acetaminophen (APAP) hepatic toxicity model, three sets of experiments were conducted. In all experiments, mice were routinely fasted overnight and received intraperitoneal (IP) injection of APAP (350 mg/kg for survival studies and 400 mg/kg for serum measurements when mice were euthanized at 24 h post-APAP) as previous described. […] Mice had APAP injection and were euthanized 24 hours later (for serum measurements) or monitored for 2 weeks (for survival studies). […] In survival experiments, mice had APAP injection and received anti-HMGB1 antibodies (5 μg/mouse, IP, once daily for 4 days followed by two additional doses once every other day beginning at 2 hours post-APAP). Irrelevant non-immune IgG was used as controls. For serum measurements, mice subjected to APAP injection and received injection of monoclonal anti-HMGB1 antibody (5 μg/mouse, injected IP at 2 and 7 hours post-APAP) and euthanized at 24 hours post-APAP. The third set of experiments was used to assess the efficacy of P5779 in APAP model in wild type mice. […] Hepatotoxicity was determined by serum levels of glutamate dehydrogenase (GLDH), alanine aminotransferease (ALT) and aspartate aminotransferase (AST) as described previously. Antoine et al., Hepatology 58:777-787 (2013).
Histological evaluation. […] sections were stained with hematoxylin and eosin.

[7] = system: LPS-induced systemic cytokine levels; assay: LPS injection in mice, serum TNF and IL-6; type: in vivo; details: LPS 8 mg/kg i.p., peptide 500 μg/mouse i.p., 90 minutes
Experimental: as §2

[8] = 500 μg/mouse i.p. at surgery, 6 h
human TLR4 = human TLR4 (Homo sapiens, UniProt O00206); assay: SPR binding to TLR4 coated on the chip
human TLR4, sequence (O00206 24-839): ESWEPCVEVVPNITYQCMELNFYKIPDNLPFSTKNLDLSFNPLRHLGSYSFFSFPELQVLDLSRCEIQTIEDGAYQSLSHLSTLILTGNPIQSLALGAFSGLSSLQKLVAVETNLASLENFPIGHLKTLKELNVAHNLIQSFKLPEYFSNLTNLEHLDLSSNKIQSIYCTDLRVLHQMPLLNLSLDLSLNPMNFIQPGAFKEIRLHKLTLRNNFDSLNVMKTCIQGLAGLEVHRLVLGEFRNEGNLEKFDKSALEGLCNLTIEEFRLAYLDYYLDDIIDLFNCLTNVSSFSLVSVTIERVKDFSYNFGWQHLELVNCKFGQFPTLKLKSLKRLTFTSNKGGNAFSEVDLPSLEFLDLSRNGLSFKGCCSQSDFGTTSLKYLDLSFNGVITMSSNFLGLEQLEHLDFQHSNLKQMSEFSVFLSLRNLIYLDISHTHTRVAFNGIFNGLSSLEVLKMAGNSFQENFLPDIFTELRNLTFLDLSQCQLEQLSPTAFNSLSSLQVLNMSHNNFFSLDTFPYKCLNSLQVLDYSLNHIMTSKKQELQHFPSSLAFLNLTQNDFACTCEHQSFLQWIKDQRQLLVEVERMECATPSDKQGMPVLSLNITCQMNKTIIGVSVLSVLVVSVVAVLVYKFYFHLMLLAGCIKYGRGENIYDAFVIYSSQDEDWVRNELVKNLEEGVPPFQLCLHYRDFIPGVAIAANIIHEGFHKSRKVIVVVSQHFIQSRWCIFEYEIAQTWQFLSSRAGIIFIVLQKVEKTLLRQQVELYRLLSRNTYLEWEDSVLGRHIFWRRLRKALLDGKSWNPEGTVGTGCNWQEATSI

human MD2 = target: T2, human MD2 (Homo sapiens, UniProt Q9Y6Y9); assay: Surface plasmon resonance (BIAcore) binding to human MD2; details: SPR
T2 sequence (Q9Y6Y9 19-160): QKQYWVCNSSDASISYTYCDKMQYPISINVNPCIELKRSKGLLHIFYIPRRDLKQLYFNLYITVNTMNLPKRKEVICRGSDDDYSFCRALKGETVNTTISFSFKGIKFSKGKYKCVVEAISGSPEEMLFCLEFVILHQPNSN

RAW 264.7 cells = assay: TNF release from RAW 264.7 cells stimulated with HMGB1 isoforms; type: cell-based, murine; details: 1 μg/ml, 16 h
Experimental: as §1, §2

Molecule: N[C@@H](Cc1ccccc1)C(=O)N[C@@H](CO)C(=O)N[C@@H](CO)C(=O)N[C@@H](CCC(=O)O)C(=O)O [P5779, FSSE]
- binding to HMGB1 (HMGB1): failed to bind
- HMGB1-induced release of IL-6, IL-12p40/p70, RANTES and MCP-1 [1]: significantly reduced
- survival after CLP vs scrambled peptide [2]: significantly and dose-dependently improved survival rates
- inhibition of TNF release mediated by Poly I:C, S100A12, LPS, PGN and CpG DNA [3]: failed to inhibit
- inhibition of HMGB1-induced TNF release (qualitative) [4]: significantly inhibited
- LPS-stimulated cytokine/chemokine release in vitro [5]: did not inhibit
- survival after APAP ([6]; 500 μg/mouse i.p. once a day for 5 days, 2 weeks): improved survival
- APAP-induced elevation of hepatic serum enzymes (AST, ALT), TNF, liver necrosis ([6]; 50 or 500 μg/mouse i.p. at 2 and 7 h post-APAP, 24 h): dose-dependently reduced
- LPS-induced systemic cytokine levels (serum TNF, IL-6) [7]: failed to attenuate
- hepatic serum enzyme release (AST, ALT) and neutrophil infiltration [8]: significantly blunted
- binding to TLR4 (human TLR4; SPR, absence of MD2): failed to bind

Molecule: SFSE (MD2 binding protein) [control peptide, reference compound]
- MD2-binding capacity (qualitative) (human MD2; peptides 100 nM): abolished the MD2-binding capacity
- inhibition of HMGB1-induced TNF release (qualitative) [4]: abolished the capacity to inhibit HMGB1-induced TNF release

Molecule: disulfide HMGB1: recombinant HMGB1 with Cys23-Cys45 disulfide bond and reduced Cys106
- Kd (human MD2; read-out: apparent Kd of HMGB1 binding to MD2, MD2 or HMGB1 immobilized on the chip): 12 nM
- TNF release induced by HMGB1 isoform (RAW 264.7 cells): induced TNF secretion
- HMGB1 binding to TLR4 in the absence of MD2 (human TLR4; disulfide HMGB1 100 nM): incapable of directly binding to TLR4

B1: H2S-modified HMGB1: HMGB1 with cysteine modified by H2S (NaSH) (protein, UniProt P09429 1-215, looked up)
High mobility group protein B1: MGKGDPKKPRGKMSSYAFFVQTCREEHKKKHPDASVNFSEFSKKCSERWKTMSAKEKGKFEDMAKADKARYEREMKTYIPPKGETKKKFKDPNAPKRPPSAFFLFCSEYRPKIKGEHPGLSIGDVAKKLGEMWNNTAADDKQPYEKKAAKLKEKYEKDIAAYRAKGKPDAAKKGVVKAEKSKKKKEEEEDEEDEEDEEEEEDEEDEDEEEDDDDE
modifications: cysteine modified by H2S
- TNF release induced by HMGB1 isoform (RAW 264.7 cells): failed to induce TNF release

B2: fully reduced HMGB1: HMGB1 with all cysteine residues reduced (protein)
chain: MGKGDPKKPRGKMSSYAFFVQTCREEHKKKHPDASVNFSEFSKKCSERWKTMSAKEKGKFEDMAKADKARYEREMKTYIPPKGETKKKFKDPNAPKRPPSAFFLFCSEYRPKIKGEHPGLSIGDVAKKLGEMWNNTAADDKQPYEKKAAKLKEKYEKDIAAYRAKGKPDAAKKGVVKAEKSKKKKEEEDDEEDEEDEEEEEEEEDEDEEEDDDDE
- TNF release induced by HMGB1 isoform (RAW 264.7 cells): failed to induce TNF release

B3: sulfonyl HMGB1: HMGB1 with all cysteines terminally oxidized (protein)
chain: MGKGDPKKPRGKMSSYAFFVQTCREEHKKKHPDASVNFSEFSKKCSERWKTMSAKEKGKFEDMAKADKARYEREMKTYIPPKGETKKKFKDPNAPKRPPSAFFLFCSEYRPKIKGEHPGLSIGDVAKKLGEMWNNTAADDKQPYEKKAAKLKEKYEKDIAAYRAKGKPDAAKKGVVKAEKSKKKKEEEDDEEDEEDEEEEEEEEDEDEEEDDDDE
- TNF release induced by HMGB1 isoform (RAW 264.7 cells): failed to induce TNF release
